# Experimental data published in the supplement of paper PMC10307832.
# Assays:
# Assay in all cases: relative viability (nuclei count vs DMSO), 5 days (fraction); higher = more cells survive
# [1] = compound: CO[C@@H]1[C@H](N(C)C(=O)c2ccccc2)C[C@H]2O[C@]1(C)n1c3ccccc3c3c4c(c5c6ccccc6n2c5c31)C(=O)NC4 [Midostaurin] + CC1(C)CCC(c2ccc(Cl)cc2)=C(CN2CCN(c3ccc(C(=O)NS(=O)(=O)c4ccc(N[C@H](CCN5CCOCC5)CSc5ccccc5)c(S(=O)(=O)C(F)(F)F)c4)cc3)CC2)C1 [Navitoclax] (partner 0.5 µM)
# How it was run: (§1)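 Dosing by pin tool came one day after lung cancer cell lines were seeded in 1536-well plates, using either one drug or a fixed anchor-drug dose plus five library-drug doses (not always all listed) in √10 steps. After 5 days, nuclei were counted on 4× images. Relative viability is treated-well nuclei count divided by vehicle-well nuclei count, and values are medians of duplicate plates.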
# [2] = compound: CO[C@@H]1[C@H](N(C)C(=O)c2ccccc2)C[C@H]2O[C@]1(C)n1c3ccccc3c3c4c(c5c6ccccc6n2c5c31)C(=O)NC4 [Midostaurin] + CS(=O)(=O)N1CCN(Cc2cc3nc(-c4cccc5[nH]ncc45)nc(N4CCOCC4)c3s2)CC1 [Pictilisib] (partner 1 µM)
# How it was run: as §1
# [3] = compound: CO[C@@H]1[C@H](N(C)C(=O)c2ccccc2)C[C@H]2O[C@]1(C)n1c3ccccc3c3c4c(c5c6ccccc6n2c5c31)C(=O)NC4 [Midostaurin] + N=C(N)NC(=N)NCCc1ccccc1 [Phenformin] (partner 250 µM)
# How it was run: as §1
# [4] = compound: COc1cc(-c2nn([C@H]3CC[C@H](N4CCN(C(C)=O)CC4)CC3)c3ncnc(N)c23)ccc1NC(=O)c1cc2ccccc2n1C + CCNC(=O)c1noc(-c2cc(C(C)C)c(O)cc2O)c1-c1ccc(CN2CCOCC2)cc1 [Luminespib] (partner 0.01 µM)
# How it was run: as §1
# [5] = compound: COc1cc(-c2nn([C@H]3CC[C@H](N4CCN(C(C)=O)CC4)CC3)c3ncnc(N)c23)ccc1NC(=O)c1cc2ccccc2n1C + Cc1nc(NC(=O)N2CCC[C@H]2C(N)=O)sc1-c1ccnc(C(C)(C)C(F)(F)F)c1 [Alpelisib] (partner 2 µM)
# How it was run: as §1
Cell Line,relative viability ([1]; first compound 0.01 µM),relative viability ([1]; first compound 0.03162 µM),relative viability ([1]; first compound 0.1 µM),relative viability ([1]; first compound 0.3162 µM),relative viability ([2]; first compound 0.01 µM),relative viability ([2]; first compound 0.03162 µM),relative viability ([2]; first compound 0.1 µM),relative viability ([2]; first compound 0.3162 µM),relative viability ([3]; first compound 0.01 µM),relative viability ([3]; first compound 0.03162 µM),relative viability ([3]; first compound 0.1 µM),relative viability ([3]; first compound 0.3162 µM),relative viability ([4]; first compound 0.0128 µM),relative viability ([4]; first compound 0.04048 µM),relative viability ([4]; first compound 0.128 µM),relative viability ([4]; first compound 1.28 µM),relative viability ([5]; first compound 0.0128 µM),relative viability ([5]; first compound 0.04048 µM),relative viability ([5]; first compound 0.128 µM),relative viability ([5]; first compound 1.28 µM)
NCI-H1437,1.13,1.03,1.07,1.12,0.58,0.567,0.567,0.599,0.373,0.285,0.298,0.372,1.24,1.16,1.12,1.08,0.968,0.992,0.897,0.757
NCI-H1651,1.01,1.07,0.897,0.898,0.543,0.575,0.529,0.512,0.377,0.4,0.327,0.299,0.797,0.859,0.942,0.743,0.965,0.941,0.911,0.862
NCI-H1666,0.872,0.855,0.84,0.846,0.406,0.359,0.523,0.516,0.496,0.537,0.546,0.537,0.926,0.994,1.01,1.04,0.981,0.864,0.921,0.769
NCI-H1734,0.829,0.813,0.798,0.697,0.465,0.424,0.496,0.303,0.421,0.354,0.453,0.366,0.219,0.19,0.16,0.172,0.684,0.636,0.716,0.573
NCI-H1755,0.966,0.927,0.828,0.627,0.397,0.345,0.407,0.332,0.631,0.621,0.609,0.592,0.501,0.418,0.48,0.308,1.04,0.992,0.884,0.656
NCI-H1792,0.613,0.591,0.601,0.647,0.323,0.25,0.257,0.244,0.508,0.303,0.428,0.309,0.424,0.46,0.498,0.35,0.78,0.593,0.719,0.55
NCI-H1793,0.417,0.533,0.513,0.493,0.378,0.097,0.217,0.49,0.444,0.325,0.36,0.26,0.166,0.186,0.168,0.156,0.734,0.682,0.595,0.442
NCI-H1915,0.8,0.827,0.794,0.799,0.913,0.852,1.01,0.98,0.35,0.348,0.352,0.352,0.877,0.691,0.625,0.678,1.13,1.07,1.02,0.857
NCI-H1944,1.03,1.18,1.11,1.15,0.388,0.294,0.372,0.327,0.217,0.196,0.239,0.235,0.667,0.647,0.783,0.477,0.827,0.879,0.784,0.506
NCI-H1975,1.13,1.07,1.04,0.818,0.277,0.273,0.263,0.248,0.425,0.418,0.39,0.397,0.249,0.186,0.159,0.123,0.659,0.757,0.547,0.257
NCI-H1993,0.964,0.901,0.972,0.992,0.775,0.817,0.898,0.722,0.476,0.498,0.477,0.508,0.768,0.825,0.589,0.767,0.76,0.771,0.599,0.569
NCI-H2009,1.16,1.14,1.03,1.15,0.891,0.833,0.752,0.555,0.428,0.464,0.48,0.372,1.1,1.14,1.04,1.08,1.15,1.2,1.16,1.08
NCI-H2023,1.07,0.898,0.92,0.903,0.235,0.249,0.208,0.186,0.448,0.432,0.4,0.285,0.697,0.983,0.622,0.767,0.607,0.651,0.546,0.521
NCI-H2085,1.16,1.06,1.02,0.757,0.501,0.428,0.448,0.446,0.718,0.627,0.749,0.583,0.416,0.524,0.445,0.43,1.08,0.949,0.975,0.658
NCI-H2087,1,0.98,0.875,0.897,0.851,0.769,0.979,1.18,0.457,0.474,0.445,0.399,0.196,,0.165,0.152,1.29,0.781,1.27,1.2
